3 compounds from ChEMBL document CHEMBL5154648, “Antitumor activity of novel POLA1-HDAC11 dual inhibitors” (Eur J Med Chem, 2022) can be followed below.

One assay deals with NCI-H460. Nature of the assay: Antiproliferative activity against human NCI-H460 cells incubated for 24 hrs followed by incubating in drug-free medium for 48 hrs and measured by SRB assay. It is filed as functional, cell-based.
A short description of assay [1]: Antiproliferative activity against human H460-R9A cells incubated for 24 hrs followed by incubating in drug-free medium for 48 hrs and measured by SRB assay. It is filed as functional, cell-based. For orientation: The SRB assay estimates cell density from bound dye.
Assay [2] in a line: Resistance index, ratio of IC50 for human NCI-H460 cells to IC50 for H460-R9A cells. It is filed as functional.
A further assay concerns A2780. Description: Antiproliferative activity against human A2780 cells incubated for 24 hrs followed by incubating in drug-free medium for 48 hrs and measured by SRB assay. In kind it is functional, cell-based.
A short description of assay [3]: Antiproliferative activity against multi-drug resistant human A2780-DX cells incubated for 24 hrs followed by incubating in drug-free medium for 48 hrs and measured by SRB assay. In kind it is functional, cell-based.
Assay [4] is described as follows: Resistance index, ratio of IC50 for human A2780 cells to IC50 for A2780-DX cells. In kind it is functional.
Assay [5] can be described thus: Antiproliferative activity against human MM432 cells incubated for 24 hrs followed by incubating in drug-free medium for 48 hrs and measured by SRB assay. In kind it is functional, cell-based.
Another assay has as its system MM473. Description: Antiproliferative activity against human MM473 cells incubated for 24 hrs followed by incubating in drug-free medium for 48 hrs and measured by SRB assay. It is filed as functional, cell-based.
Assay [6] is described as follows: Antiproliferative activity against human MM487 cells incubated for 24 hrs followed by incubating in drug-free medium for 48 hrs and measured by SRB assay. It is filed as functional, cell-based.
Another assay concerns Ramos. Description: Antiproliferative activity against human Ramos cells incubated for 24 hrs followed by incubating in drug-free medium for 48 hrs and measured by SRB assay. In kind it is functional, cell-based.
For the next assay, the system named is L-428. Description: Antiproliferative activity against human L-428 cells incubated for 24 hrs followed by incubating in drug-free medium for 48 hrs and measured by SRB assay. It is filed as functional, cell-based.
The next assay deals with U2932. Nature of the assay: Antiproliferative activity against human U2932 cells incubated for 24 hrs followed by incubating in drug-free medium for 48 hrs and measured by SRB assay. It is filed as functional, cell-based.
The next assay concerns Z-138. Nature of the assay: Antiproliferative activity against human Z138 cells incubated for 24 hrs followed by incubating in drug-free medium for 48 hrs and measured by SRB assay. It is filed as functional, cell-based.
For the next assay, the system named is NB-4. Description: Antiproliferative activity against human NB-4 cells incubated for 24 hrs followed by incubating in drug-free medium for 48 hrs and measured by SRB assay. In kind it is functional, cell-based.
A further assay relates to THP-1. Description: Antiproliferative activity against human THP-1 cells incubated for 24 hrs followed by incubating in drug-free medium for 48 hrs and measured by SRB assay. It is filed as functional, cell-based.
The next assay has as its system MDA-MB-436. Description: Antiproliferative activity against human MDA-MB-436 cells incubated for 24 hrs followed by incubating in drug-free medium for 48 hrs and measured by SRB assay. In kind it is functional, cell-based.
A short description of assay [7]: Antiproliferative activity against human U-87 MG cells incubated for 24 hrs followed by incubating in drug-free medium for 48 hrs and measured by SRB assay. In kind it is functional, cell-based, U-87MG ATCC.
For the next assay, the target named is T1, Histone deacetylase 11 (Homo sapiens, UniProt Q96DB2).
T1 sequence (Q96DB2 whole entry): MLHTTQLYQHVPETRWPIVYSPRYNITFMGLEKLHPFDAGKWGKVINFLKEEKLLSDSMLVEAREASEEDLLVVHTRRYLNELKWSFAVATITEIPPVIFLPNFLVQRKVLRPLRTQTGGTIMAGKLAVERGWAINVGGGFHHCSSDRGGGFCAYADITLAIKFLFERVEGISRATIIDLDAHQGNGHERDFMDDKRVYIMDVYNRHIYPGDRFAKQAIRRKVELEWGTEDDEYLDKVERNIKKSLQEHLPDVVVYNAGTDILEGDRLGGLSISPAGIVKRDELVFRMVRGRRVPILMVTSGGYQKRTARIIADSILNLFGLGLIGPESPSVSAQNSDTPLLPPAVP
Description: Inhibition of HDAC11 (unknown origin) using fluorogenic peptide 382 RHKK(Ac)AM as substrate and measured by fluorescence assay.

Assay [8] concerns the target T2, DNA polymerase alpha catalytic subunit (Homo sapiens) (UniProt P09884).
T2 sequence (whole entry): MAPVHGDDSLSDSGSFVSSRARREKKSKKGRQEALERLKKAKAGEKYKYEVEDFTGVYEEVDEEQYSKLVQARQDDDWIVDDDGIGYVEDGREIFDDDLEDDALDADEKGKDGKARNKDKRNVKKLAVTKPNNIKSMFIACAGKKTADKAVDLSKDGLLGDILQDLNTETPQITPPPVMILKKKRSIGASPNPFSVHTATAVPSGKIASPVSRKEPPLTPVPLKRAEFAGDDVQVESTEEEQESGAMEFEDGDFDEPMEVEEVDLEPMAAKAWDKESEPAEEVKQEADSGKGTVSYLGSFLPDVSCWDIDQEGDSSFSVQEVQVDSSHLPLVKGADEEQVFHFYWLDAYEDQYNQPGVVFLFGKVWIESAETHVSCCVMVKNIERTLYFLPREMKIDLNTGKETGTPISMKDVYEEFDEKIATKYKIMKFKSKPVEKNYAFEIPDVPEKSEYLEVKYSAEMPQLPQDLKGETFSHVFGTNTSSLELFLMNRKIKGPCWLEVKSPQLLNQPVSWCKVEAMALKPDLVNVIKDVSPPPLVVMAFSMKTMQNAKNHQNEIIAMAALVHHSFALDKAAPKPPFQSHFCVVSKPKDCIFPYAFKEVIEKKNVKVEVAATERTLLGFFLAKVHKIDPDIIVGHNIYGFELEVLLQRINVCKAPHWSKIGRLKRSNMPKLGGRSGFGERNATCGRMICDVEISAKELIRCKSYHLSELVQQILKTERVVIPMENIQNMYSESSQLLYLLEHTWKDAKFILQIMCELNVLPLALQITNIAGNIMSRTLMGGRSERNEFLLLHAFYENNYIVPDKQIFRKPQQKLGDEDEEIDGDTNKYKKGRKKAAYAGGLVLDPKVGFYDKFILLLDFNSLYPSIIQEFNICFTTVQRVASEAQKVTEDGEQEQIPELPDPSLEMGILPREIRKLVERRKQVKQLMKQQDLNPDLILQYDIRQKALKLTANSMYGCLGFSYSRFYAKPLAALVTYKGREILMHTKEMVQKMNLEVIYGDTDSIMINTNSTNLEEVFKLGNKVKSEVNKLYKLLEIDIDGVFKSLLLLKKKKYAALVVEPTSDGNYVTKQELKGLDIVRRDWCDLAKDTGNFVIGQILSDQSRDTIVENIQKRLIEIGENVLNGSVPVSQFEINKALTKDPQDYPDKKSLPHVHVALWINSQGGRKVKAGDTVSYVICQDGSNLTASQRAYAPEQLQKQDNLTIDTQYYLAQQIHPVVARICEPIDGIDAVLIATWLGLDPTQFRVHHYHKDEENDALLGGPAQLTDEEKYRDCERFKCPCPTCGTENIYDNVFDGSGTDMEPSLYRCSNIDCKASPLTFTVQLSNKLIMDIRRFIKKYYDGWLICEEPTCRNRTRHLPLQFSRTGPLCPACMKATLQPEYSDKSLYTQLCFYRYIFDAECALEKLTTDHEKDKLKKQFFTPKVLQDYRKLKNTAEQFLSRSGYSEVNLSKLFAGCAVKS
Nature of the assay: Inhibition of POLA1 in human NCI-H460 cells at 0.1 to 0.4 uM assessed as upregulation of p21 expression and measured by Western blot analysis. It is filed as cell-based. The settings on record: dose 0.1-0.4 µM.

Active and inactive are the calls of the source. No cut-off for these calls is given here.

For orientation: IC50 means the concentration at which inhibition is half-maximal. Higher therefore signals lower potency. `CC(Oc1ccc(-c2ccc(C=CC(=O)O)cc2)cc1C12CC3CC(CC(C3)C1)C2)C(=O)NO` (configuration not stated): the IC50 in the assay on NCI-H460 stood at 260 nM; in assay [1], 2200 nM; in the assay on A2780, 950 nM; in assay [3], 660 nM; in [5] it was 1400 nM; in the assay on MM473, 1400 nM. The IC50 is 730 nM in assay [6]; 1200 nM in the assay on Ramos; 3200 nM with L-428; 770 nM in the assay on U2932; 160 nM in the assay with Z-138; 230 nM in the assay on NB-4. Further, the IC50 with THP-1 was determined as 520 nM; in the assay on MDA-MB-436 it was 770 nM; in assay [7] it was 1000 nM; at Histone deacetylase 11 it was 8230 nM. Also, the “Ratio IC50” value was determined as 8.5 in assay [2] and 0.7 in [4]. In addition, the inhibition result in [8] was “Active”.
Take `O=C(O)C=Cc1ccc(-c2ccc(OCC(=O)NO)c(C34CC5CC(CC(C5)C3)C4)c2)cc1`: the IC50 in the assay on NCI-H460 is 250 nM; in [1], 2800 nM; in the assay with A2780, 600 nM; in assay [3] it was 410 nM; in assay [5] it was 900 nM; in the assay on MM473 it was 12000 nM. Moreover, the IC50 was 22000 nM in [6]; 710 nM in the assay with Ramos; 2100 nM in the assay on L-428; 520 nM with U2932; 38 nM with Z-138; 180 nM in the assay with NB-4. Further, the IC50 stood at 420 nM in the assay with THP-1, 640 nM in the assay with MDA-MB-436, 1100 nM in [7] and 6090 nM on Histone deacetylase 11. Moreover, the “Ratio IC50” value turned out to be 11.2 in assay [2] and 0.7 in assay [4]. Besides, in [8], the inhibition result is “Active”.
In the case of `O=C(O)C=Cc1ccc(-c2ccc(O)c(C34CC5CC(CC(C5)C3)C4)c2)cc1`, the IC50 with NCI-H460 is 120 nM; in [1], 8400 nM; in the assay with A2780 it was 98 nM; in assay [3], 170 nM; in assay [5] it was 430 nM; in the assay on MM473, 600 nM. Moreover, the IC50 in assay [6] is 100 nM; in the assay on Ramos it was 290 nM; in the assay on L-428 it was 450 nM; in the assay on U2932, 77 nM; in the assay on Z-138, 26 nM; in the assay on NB-4, 100 nM. In addition, the IC50 in the assay on THP-1 is 150 nM; with MDA-MB-436, 550 nM; in assay [7], 530 nM; against Histone deacetylase 11, greater than 10000 nM. Further, the “Ratio IC50” value is given as 70 in assay [2] and 1.7 in assay [4]. Also, the inhibition entry in assay [8] is “Active”.
